Data as given in patent US6218431A, “Substituted biphenyls” (Bayer Corporation, priority 1997, dated 2001).
pIC50: −log10 of the molar value.

What follows are molecules tested against T1, glucagon receptor (Homo sapiens, UniProt P47871) (assay: glucagon receptor binding assay (125I-glucagon, CHO-HGR membranes)). Details: 20 μM; reported where 20 μM did not reduce glucagon binding by 50%.
T1 construct: expressed in transfected cells; host or cells: Chinese Hamster Ovary cells (CHO-HGR), membranes
Description: The affinity for the glucagon receptor of compounds of the present invention is determined by the glucagon receptor binding assay. Membranes were prepared from Chinese Hamster Ovary cells expressing the glucagon receptor (CHO-HGR) by scraping the cells into hypotonic lysis buffer (10 mM Tris, pH 7.4, 2 mM EDTA, 5 mM MgCl2 and 1 mM PMSF) and subjecting the material to Polytron homogenization. Nuclei were removed by a 15-min 800×g centrifugation step conducted at 4° C. Membranes containing the receptor were collected by centrifugation at 15,000×gfor 15 min at 4° C. The membranes were washed once in lysis buffer and suspended in 0.25 M sucrose, 10 mM Tris, 5 mM EDTA, pH 7.4. The membranes were used in ligand binding studies as reported (Yoo-Warren, H., Willse, A. G., Hancock, N., Hull, J., McCaleb, M., and Livingston, J. Regulation of Rat Glucagon Receptor Expression. Biochem. Biophysical Res. Commun. 1994, 205, 347-353). In brief, 10 ug of membrane protein was incubated in 130 μl of binding buffer that consisted of 20 mM Tris, […], 1 mM EDTA, 1 mg/ml BSA, and 1 mg/ml bacitracin. The membrane suspension was placed in each well of a 96-well filtration plate (glass fiber type C, Millipore). […] Following the addition of test compound, 50 μl of ^125 I-glucagon (9 fmol) (NEN) was added to each well. Control wells contained membranes, 0.5% DMSO (solvent for test compounds), radiolabeled glucagon without and with excess native glucagon (1 μM) to establish nonspecific binding. The plates were incubated for 60 min at room temperature, and then filtered on a Mllipore vacuum apparatus. Following a wash step with ice-cold PBS/0.1% BSA, the filters were punched into test tubes, and the membrane bound radioactivity was determined.

T1 sequence (P47871 26-477): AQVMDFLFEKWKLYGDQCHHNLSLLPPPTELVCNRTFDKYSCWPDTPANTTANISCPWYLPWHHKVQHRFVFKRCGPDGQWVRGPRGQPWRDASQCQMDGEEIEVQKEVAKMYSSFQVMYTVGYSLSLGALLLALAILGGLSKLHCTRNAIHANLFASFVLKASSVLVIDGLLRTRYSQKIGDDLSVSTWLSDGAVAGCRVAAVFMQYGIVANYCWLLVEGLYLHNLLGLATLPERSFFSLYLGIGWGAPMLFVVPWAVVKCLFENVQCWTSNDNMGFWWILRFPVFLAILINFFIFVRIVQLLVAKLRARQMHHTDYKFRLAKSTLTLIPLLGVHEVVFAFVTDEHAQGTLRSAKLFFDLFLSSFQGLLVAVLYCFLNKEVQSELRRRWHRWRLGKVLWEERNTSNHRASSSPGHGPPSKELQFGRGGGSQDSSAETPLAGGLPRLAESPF

inhibition at 20 µM | Compound
41.4% | CCCC=Cc1c(C(C)C)nc(C(C)C)c(CO)c1-c1cccc(Cl)c1 [Example 145, 2,6-Diisopropyl-3-hydroxymethyl-4-(3-chlorophenyl)-5-(pent-1-enyl)-pyridine]
30.2% | CCCCCc1c(C(C)C)nc(C(C)C)c(CCO)c1-c1ccc(F)cc1 [Example 119, 2,6-Diisopropyl-3-(2-hydroxyethyl)-4-(4fluorophenyl)-5-pentylpyridine]
38.5% | C=CC(O)c1c(C(C)C)nc(C(C)C)c(CCCCC)c1-c1ccc(F)cc1 (racemic) [Example 114, (±)-2,6-Diisopropyl-3-(1-hydroxy-2-propenyl)-4-(4-fluorophenyl)-5-pentylpyridine]
29.2% | CC(C)c1nc(C(C)C)c(C(O)C(C)C)c(-c2ccc(F)cc2)c1CO (racemic) [Example 97, (±)-2,6-Diisopropyl-3-hydroxymethyl-4-(4-fluorophenyl)-5-[(1-hydroxy-2-methyl)propyl]pyridine]
34.2% | CC(C)c1nc(C(C)C)c(CN2CCN(c3ccccc3)CC2)c(-c2ccc(F)cc2)c1CO [Example 75, 2,6-Diisopropyl-3-hydroxymethyl-4-(4-fluorophenyl)-5-[(4-phenylpiperazin-1-yl)methyl]pyridine]
37% | CCCCCc1c(C(C)C)nc(C(C)C)c(CNC)c1-c1ccc(F)cc1 [Example 120, 2,6-Diisopropyl-3-methylaminomethyl-4-(4-fluorophenyl)-5-pentyl-pyridine]

Same assay, conditions: 125I-glucagon; 60 min at room temperature; read-out: IC50

Compound | pIC50
CCCc1c(C)cc(C)c(C(C)O)c1-c1ccc(F)cc1 (centres unmarked) [Example 195, 3,5-Dimethyl-2-(1-hydroxyethyl)-6-propyl-4'-fluoro-1,1'-biphenyl] | 4.92
Cc1c(F)c(F)c(SCc2c(C(C)C)cc(C(C)C)c(CO)c2-c2ccc(F)cc2)c(F)c1F [Example 286] | 4.74
CC(C)c1nc(C(C)C)c(C(C)O)c(-c2ccc(F)cc2)c1CSc1ccccc1 (racemic) [Example 113, (±)-2,6-Diisopropyl-3-(1-hydroxyethyl)-4-(4-fluorophenyl)-5-phenylthio-methylpyridine] | 6.22
CC(C)c1nc(C(C)C)c(CNC2CCCCC2)c(-c2ccc(F)cc2)c1CO [Example 78, 2,6-Diisopropyl-3-hydroxymethyl-4-(4-fluorophenyl)-5-(cyclohexylamino)methylpyridine] | 5.12
CC(C)c1cc(C(C)C)c(CSc2cc(Cl)cc(Cl)c2)c(-c2ccc(F)cc2)c1CO [Example 285] | 5.05
CC(C)c1cc(C(C)C)c(CSc2c(F)c(F)c(Cl)c(F)c2F)c(-c2ccc(F)cc2)c1CO [Example 287] | 4.70
CC(C)CC=Cc1c(C(C)C)nc(C(C)C)c(CO)c1-c1ccc(F)cc1 [Example 28, 2,6Diisopropyl-3-hydroxymethyl-4-(4-fluorophenyl)-5-(4-methyl-1-pentenyl)pyridine] | 6.00
CC(C)c1nc(C(C)C)c(CN2CCCCC2)c(-c2ccc(F)cc2)c1CO [Example 70, 2,6-Diisopropyl-3-hydroxymethyl-4-(4-fluorophenyl)-5-(piperidinomethyl)pyridine] | 4.92
CC(C)C=Cc1c(C(C)C)nc(C(C)C)c(CO)c1-c1ccc(F)cc1 [Example 27, 2,6-Diisopropyl-3-hydroxymethyl-4-(4-fluorophenyl)-5-(3-methyl-1-butenyl)pyridine] | 4.70
Cc1ccc(COCc2c(C(C)C)cc(C(C)C)c(C(C)O)c2-c2ccc(F)cc2)cc1 (single isomer, unassigned; (+)) [Example 248, (+)-3,5-Diisopropyl-2-[(p-methylbenzyloxy)methyl]-6-(1-hydroxyethyl)-4'-fluoro-1,1'-biphenyl] | 6.51
CC(C)c1nc2c(c(-c3ccc(F)cc3)c1CO)CCC2(C)C [Example 234, 2-Isopropyl-3-hydroxymethyl-4-(4-fluorophenyl)-7,7-dimethyl-5H-cyclopenta[b]pyridine] | 5.10
CC(C)c1nc(C(C)C)c(CO)c(-c2ccc(F)cc2)c1C=C1CCCC1 [Example 31, 2,6-Diisopropyl-3-hydroxymethyl-4-(4-flurorphenyl)-5-(cyclopentyl-idenemethylene)pyridine] | 5.59

The next lines start with the values.

pIC50 | Compound
5.70 | CCCCCc1c(CC(C)C)nc(C(C)C)c(CO)c1-c1ccc(F)cc1 [Example 228, 2-Isopropyl-3-hydroxymethyl-4-(4-fluorophenyl)-5-pentyl-6-(2-methylpropyl)pyridine]
5.74 | Cc1ccccc1CCc1c(C(C)C)nc(C(C)C)c(CO)c1-c1ccc(F)cc1 [Example 43, 2,6-Diisopropyl-3-hydroxymethyl-4-(4-fluorophenyl)-5-[2-(2-methyl-phenyl)ethyl]pyridine]
6.41 | CCCCCCc1c(C(C)C)nc(C(C)C)c(CO)c1-c1ccc(F)cc1 [Example 23, 2,6-Diisopropyl-3-hydroxymethyl-4-(4-fluorophenyl)-5-hexylpyridine]
5.47 | Cc1cc(C)cc(SCc2c(C(C)C)nc(C(C)C)c(CO)c2-c2ccc(F)cc2)c1 [Example 61, 2,6-Diisopropyl-3-hydroxymethyl-4-(4-fluorophenyl)-5-[(3,5dimethylphenyl)thio]methylpyridine]
6.12 | CCCCc1c(C(C)C)nc(C(C)C)c(CO)c1-c1ccccc1 [Example 18, 2,6-Diisopropyl-3-hydroxymethyl-4-phenyl-5-butylpyridine]
5.52 | CCCCCc1c(C=C(C)C)nc(C(C)C)c(CO)c1-c1ccc(F)cc1 [Example 226, 2-Isopropyl-3-hydroxymethyl-4-(4-fluorophenyl)-5-pentyl-6-(2-methylpropenyl)pyridine]
4.74 | C=CCC(O)c1nc(C(C)C)c(CO)c(-c2ccc(F)cc2)c1CCCCC (centres unmarked) [Example 205, 2-(1-Hydroxybut-3-enyl)-3-pentyl-4-(4-fluorophenyl)-5-hydroxymethyl-6-isopropylpyridine]
5.89 | CCC=Cc1c(C(C)C)nc(C(C)C)c(CO)c1-c1ccc(F)cc1 [Example 20, 2,6-Diisopropyl-3-hydroxymethyl-4-(4-fluorophenyl)-5-(l-butenyl)-pyridine]
6.19 | CC(C)c1nc(C(C)C)c(CCCc2ccccc2)c(-c2ccc(F)cc2)c1CO [Example 83]
5.74 | CCCCCCC=Cc1c(C(C)C)nc(C(C)C)c(CO)c1-c1ccc(F)cc1 [Example 33, 2,6-Diisopropyl-3-hydroxymethyl-4-(4-fluorophenyl)-5-(1-octenyl)-pyridine]
4.96 | CCCC=Cc1c(C(C)C)nc(C(C)C)c(CO)c1-c1ccccc1F [Example 137, 2,6-Diisopropyl-3-hydroxymethyl-4-(2-fluorophenyl)-5-(pent-1-enyl)-pyridine]
6.12 | Cc1ccccc1/C=C/c1c(C(C)C)nc(C(C)C)c(CO)c1-c1ccc(F)cc1 [Example 40, 2,6-Diisopropyl-3-hydroxymethyl-4-(4-fluorophenyl)-5-[2(E)-(2-methyl-phenyl)ethenyl]pyridine]
6.05 | Cc1ccc(SCc2c(C(C)C)nc(C(C)C)c(CO)c2-c2ccc(F)cc2)cc1 [Example 50, 2,6-Diisopropyl-3-hydroxymethyl-4-(4-fluorophenyl)-5-[((4-methyl)-phenyl)thio]methylpyridine]
5.82 | CCCC=Cc1c(C(C)C)nc(C(C)C)c(CO)c1-c1ccc(C)cc1 [Example 129, 2,6-Diisopropyl-3-hydroxymethyl-4-(4-methylphenyl)-5-(Pent-1-enyl)-pyridine]
